This note sets out measurements from patent US20070249555A1, “Use of Atp Analogues for Treatment of Cardiovascular Diseases” (INSTITUT NATIONAL DE LA SANTE ET DE LA RECHERCHE MEDICALE …, priority 2004, published 2007).

In experiment [1] the test system is HepG2 cells. As to the kind of experiment: TG-HDL2 internalization by HepG2 cells. Format: cell-based, human. The note with it: 10 min at 37° C. On the procedure:
Cells were incubated for 10 minutes at 37° C. with 75 μg/ml^125I-TG-HDL2 without (control) or with apolipoprotein A-I 10 μg/ml (a), ADP 100 nM (b), AR-C69931MX 100 nM (c), ADP 100 nM+AR-C69931MX 100 nM (d), ADP 100 nM+[…] 100 μM (e), ADP 100 nM+MRS2179 10 μM (f). […] Internalization assays were performed as described in Guendouzi et al., (Biochemistry, 1998, 37: 14974-80) on HepG2 cells, obtained from the American Type Culture Collection ([…]). Cells were incubated for 10 minutes at 37° C. with 75 μg/ml of either ^125I-TG-HDL2, ^125I-HDL3 or ^125I-LDL. After washing and dissociation at 4° C. in phosphate buffered saline (PBS), cell radioactivity was determined using a Wallac 1261 multigamma apparatus. Prior experiments, cells were plated in polylysine-coated 24-multiwell plates (Falcon) at 4×10^4 cells per well. Cells were grown in Dulbecco's modified Eagles medium supplemented with 10% fetal calf serum, 100 units/ml penicillin, and 100 μg/ml streptomycin at 37° C. in a 5% CO2 and 95% air incubator. Medium was changed every 2 or 3 days, and the cells were subcultured every 7-8 days. Results are expressed as a percentage of internalization with respect to the control value (set at 0). Control corresponded to a basal value of internalization, amounting to 400 ng, 300 ng, 200 ng of TG-HDL2, HDL3 and LDL per mg of cells protein respectively for 10 minutes. Data as a mean ±SEM of at least 7, 5, 6 independent experiments, for TG-HDL2, HDL3 and LDL respectively.

For experiment [2], the system named is HepG2 cells. As to the kind of experiment: LDL internalization by HepG2 cells, without or with P2Y13 receptor silencing. Type of experiment: cell-based, human. The note with it: HepG2, 75 μg/ml 125I-LDL, 100 nM, both without or with P2Y13 receptors silencing. The protocol:
Experiment was performed as in FIG. 2C except that HepG2 cells were incubated for 10 minutes at 37° C. with 75 μg/ml ^125I-LDL (n>6).
(§1) Internalization assays were performed as described in Guendouzi et al., (Biochemistry, 1998, 37: 14974-80) on HepG2 cells, obtained from the American Type Culture Collection ([…]). Cells were incubated for 10 minutes at 37° C. with 75 μg/ml of either ^125I-TG-HDL2, ^125I-HDL3 or ^125I-LDL. After washing and dissociation at 4° C. in phosphate buffered saline (PBS), cell radioactivity was determined using a Wallac 1261 multigamma apparatus.
The silencing of the different P2Y receptors were carried-out using the siRNA technique. The siRNA sequenced targeting human P2Y13 receptor (Gene Bank GB/EMBL/DDBJ accession number AF295368) was from position 406 or 359 relative to the start codon. The siRNA duplex (21-nt-RNAs) in deprotected and desalted form, the siRNA targeting human P2Y1 receptor (a mix of 4 siRNAs, M-005689), and the non-specific control siRNA (D-001206-01) were purchased from Dharmacon Inc. Subconfluent HepG2 cells were transiently transfected with siRNAs (final concentration, 100 nM) using Oligofectamine™ according to the manufacturer's protocole (Invitrogen). Cells were usually assayed 48 hours after transfection. […]
Results are expressed as a percentage of internalization with respect to the control value (set at 0). […]

The target of another experiment is T1, human P2Y1 receptor (Homo sapiens, UniProt P47900).
T1 construct: host or cells: HepG2
T1 sequence (P47900 whole entry): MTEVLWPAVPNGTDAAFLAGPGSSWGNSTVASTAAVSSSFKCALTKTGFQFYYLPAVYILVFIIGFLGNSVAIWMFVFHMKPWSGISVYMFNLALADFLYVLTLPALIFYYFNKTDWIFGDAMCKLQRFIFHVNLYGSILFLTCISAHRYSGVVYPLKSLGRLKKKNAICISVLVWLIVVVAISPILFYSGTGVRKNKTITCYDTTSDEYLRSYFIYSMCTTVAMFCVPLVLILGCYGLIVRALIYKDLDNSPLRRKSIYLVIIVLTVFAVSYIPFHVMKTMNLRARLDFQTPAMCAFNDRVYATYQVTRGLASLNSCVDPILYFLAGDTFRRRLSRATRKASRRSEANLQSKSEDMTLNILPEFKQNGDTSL
Nature of the experiment: TG-HDL2 internalization by HepG2 cells after P2Y1 receptor silencing by siRNA. The note with it: HepG2, pool of 4 P2Y1 siRNAs 100 nM, 48 h; apoA-I 10 μg/ml, ADP 100 nM, AR-C69931MX 100 nM. Type of experiment: cell-based. The protocol: HepG2 cells were transiently transfected with siRNA designated to human P2Y1 receptor (columns d, e, f, g) or with non specific siRNA as control (a, b, c). 48 hours later, cells were incubated for 10 minutes at 37° C. with 75 μg/ml ^125I-TG HDL2 without (control) or with apolipoprotein A-I 10 μg/ml (a and d), ADP 100 nM (b and e), AR-C69931MX 100 nM (c and f), PBS (g). Data are expressed as a percentage of internalized radioactivity with respect to the control value (set as 0) (n>5); (*) p<0.05 (unpaired t-test).
as §1
(§2) The silencing of the different P2Y receptors were carried-out using the siRNA technique. The siRNA sequenced targeting human P2Y13 receptor (Gene Bank GB/EMBL/DDBJ accession number AF295368) was from position 406 or 359 relative to the start codon. The siRNA duplex (21-nt-RNAs) in deprotected and desalted form, the siRNA targeting human P2Y1 receptor (a mix of 4 siRNAs, M-005689), and the non-specific control siRNA (D-001206-01) were purchased from Dharmacon Inc. Subconfluent HepG2 cells were transiently transfected with siRNAs (final concentration, 100 nM) using Oligofectamine™ according to the manufacturer's protocole (Invitrogen). Cells were usually assayed 48 hours after transfection. Specific silencing effect was confirmed by at least three independent experiments.
Results are expressed as a percentage of internalization with respect to the control value (set at 0). Control corresponded to a basal value of internalization, amounting to 400 ng, 300 ng, 200 ng of TG-HDL2, HDL3 and LDL per mg of cells protein respectively for 10 minutes. […]

A further experiment concerns the target T2, human P2Y13 receptor (Homo sapiens, UniProt Q9BPV8).
T2 construct: host or cells: HepG2
T2 sequence (Q9BPV8 1-354): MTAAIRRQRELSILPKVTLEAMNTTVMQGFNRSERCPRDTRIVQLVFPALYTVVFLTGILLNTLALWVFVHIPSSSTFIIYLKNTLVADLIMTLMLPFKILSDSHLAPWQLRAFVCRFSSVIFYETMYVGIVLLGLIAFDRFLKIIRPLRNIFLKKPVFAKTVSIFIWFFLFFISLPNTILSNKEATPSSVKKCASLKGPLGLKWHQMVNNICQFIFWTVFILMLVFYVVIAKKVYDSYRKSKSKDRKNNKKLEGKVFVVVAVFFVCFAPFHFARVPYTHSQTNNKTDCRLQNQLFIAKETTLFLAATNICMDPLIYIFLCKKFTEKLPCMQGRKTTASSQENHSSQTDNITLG
As to the kind of experiment: TG-HDL2 internalization by HepG2 cells after P2Y13 receptor silencing by siRNA. Format: cell-based. The note with it: HepG2, P2Y13 siRNA 100 nM, 48 h; apoA-I 10 μg/ml, ADP 100 nM, AR-C69931MX 100 nM. The protocol:
Experiment was performed as in FIG. 2A with non-specific control siRNA (a, b, c) or with siRNA directed to human P2Y13 receptor (d, e, f, g) (n>7); (*) p<0.05 (unpaired t-test).
as §1, §2
Results are expressed as a percentage of internalization with respect to the control value (set at 0). Control corresponded to a basal value of internalization, amounting to 400 ng, 300 ng, 200 ng of TG-HDL2, HDL3 and LDL per mg of cells protein respectively for 10 minutes. Data as a mean ±SEM of at least 7, 5, 6 independent experiments, for TG-HDL2, HDL3 and LDL respectively.

With `CSCCNc1nc(SCCC(F)(F)F)nc2c1ncn2[C@@H]1O[C@H](COP(=O)(O)OP(=O)(O)C(Cl)(Cl)P(=O)(O)O)[C@@H](O)[C@H]1O` [AR-C69931MX, N-[2-(methylthio)ethyl]-2-[(3,3,3-trifluoropropyl)thio]-5′-adenylic acid, monoanhydride with dichloromethylenebisphosphonic acid], the “ADP-dependent TG-HDL2 internalization, increase above control cells” value in the experiment with HepG2 cells [1] (ADP 100 nM + AR-C69931MX 100 nM) was “over 30%”. Further, in the experiment with HepG2 cells [2], the “stimulation of internalization of 125I-labelled LDL” value is given as “lack of stimulation”. In addition, at human P2Y1 receptor, the “effect of P2Y1 receptors silencing on the stimulation of TG-HDL2 endocytosis” value is “no effect”. Also, the “effect of P2Y13 receptor silencing on TG-HDL2 endocytosis after stimulation” value on human P2Y13 receptor was “dramatic inhibition”.
`Nc1ncnc2c1ncn2[C@@H]1O[C@H](COP(=O)(O)OP(=O)(O)O)[C@@H](O)[C@H]1O` [ADP, adenosine diphosphate, reference compound]: the “internalization of 125I-TG-HDL2 by HepG2 cells, increase above control cells” value in the experiment on HepG2 cells [1] (75 μg/ml 125I-TG-HDL2, apoA-I 10 μg/ml, ADP 100 nM, AR-C69931MX 100 nM alone) was found to be 20%. Moreover, the “stimulation of internalization of 125I-labelled LDL” value with HepG2 cells [2] is on record as “lack of stimulation”. In addition, the “effect of P2Y1 receptors silencing on the stimulation of TG-HDL2 endocytosis” value at human P2Y1 receptor is “no effect”. On human P2Y13 receptor, the “effect of P2Y13 receptor silencing on TG-HDL2 endocytosis after stimulation” value was “dramatic inhibition”.
